Measured values as given in ChEMBL document CHEMBL3509549.

What was measured:
[1] = Median Tmax of saquinavir mesylate following oral repeat dosing of 1000 mg Invirase Hard Gel Capsules capsules in healthy human; format: ADME, organism-based; conditions: both, plasma, read-out: Median Tmax
clinical [2] = conditions: both, human, plasma, po, 1000 mg
[3] = Arithmetic mean of AUC(0-infinity) of saquinavir mesylate following oral repeat dosing of 1000 mg Invirase Hard Gel Capsules capsules in healthy human; format: ADME, organism-based; conditions: both, plasma, read-out: AUC(0-infinity)
[4] = Mean exposure of saquinavir mesylate estimated by AUC(0-infinity) following oral repeat dosing of 1000 mg Invirase Hard Gel Capsules capsules in healthy woman; format: ADME, organism-based; conditions: female, human, plasma, read-out: AUC(0-infinity)
[5] = Mean exposure of saquinavir mesylate estimated by Cmax following oral repeat dosing of 1000 mg Invirase Hard Gel Capsules capsules in healthy woman; format: ADME, organism-based; conditions: female, human, plasma
[6] = Minimum Tmax of saquinavir mesylate following oral repeat dosing of 1000 mg Invirase Hard Gel Capsules capsules in healthy human; format: ADME, organism-based, Plasma; conditions: in vivo
[7] = Mean exposure of saquinavir mesylate estimated by AUC(0-infinity) following oral repeat dosing of 1000 mg Invirase Film-coated tablet in healthy woman; format: ADME, organism-based; conditions: female, human, plasma, read-out: AUC(0-infinity)
[8] = Arithmetic mean of Cmax of saquinavir mesylate following oral repeat dosing of 1000 mg Invirase Film-coated tablet in healthy human; format: ADME, organism-based; conditions: both, plasma
[9] = Geometric mean of Cmax of saquinavir mesylate following oral repeat dosing of 1000 mg Invirase Film-coated tablet in healthy human; format: ADME, organism-based; conditions: both, plasma
[10] = Mean exposure of saquinavir mesylate estimated by Cmax following oral repeat dosing of 1000 mg Invirase Hard Gel Capsules capsules in healthy men; format: ADME, organism-based; conditions: male, human, plasma
[11] = Mean exposure of saquinavir mesylate estimated by AUC(0-infinity) following oral repeat dosing of 1000 mg Invirase Hard Gel Capsules capsules in healthy men; format: ADME, organism-based; conditions: male, human, plasma, read-out: AUC(0-infinity)
[12] = Maximum Tmax of saquinavir mesylate following oral repeat dosing of 1000 mg Invirase Hard Gel Capsules capsules in healthy human; format: ADME, organism-based; conditions: both, plasma, read-out: Maximum Tmax
[13] = Mean exposure of saquinavir mesylate estimated by Cmax following oral repeat dosing of 1000 mg Invirase Film-coated tablet in healthy men; format: ADME, organism-based; conditions: male, human, plasma
clinical [14] = conditions: both, human, plasma, po, 1000 mg; remark: listed apart in the source
[15] = Arithmetic mean of Cmax of saquinavir mesylate following oral repeat dosing of 1000 mg Invirase Hard Gel Capsules capsules in healthy human; format: ADME, organism-based; conditions: both, plasma
[16] = Geometric mean of AUC(0-infinity) of saquinavir mesylate following oral repeat dosing of 1000 mg Invirase Film-coated tablet in healthy human; format: ADME, organism-based; conditions: both, plasma, read-out: AUC(0-infinity)
[17] = Mean exposure of saquinavir mesylate estimated by Cmax following oral repeat dosing of 1000 mg Invirase Hard Gel Capsules capsules in healthy human; format: ADME, organism-based; conditions: both, plasma
[18] = Geometric mean of Cmax of saquinavir mesylate following oral repeat dosing of 1000 mg Invirase Hard Gel Capsules capsules in healthy human; format: ADME, organism-based; conditions: both, plasma
[19] = Mean exposure of saquinavir mesylate estimated by Cmax following oral repeat dosing of 1000 mg Invirase Film-coated tablet in healthy woman; format: ADME, organism-based; conditions: female, human, plasma
[20] = Median Tmax of saquinavir mesylate following oral repeat dosing of 1000 mg Invirase Film-coated tablet in healthy human; format: ADME, organism-based; conditions: both, plasma, read-out: Median Tmax
[21] = Mean exposure of saquinavir mesylate estimated by Cmax following oral repeat dosing of 1000 mg Invirase Film-coated tablet in healthy human; format: ADME, organism-based; conditions: both, plasma
[22] = Minimum Tmax of saquinavir mesylate following oral repeat dosing of 1000 mg Invirase Film-coated tablet in healthy human; format: ADME, organism-based; conditions: both, plasma, read-out: Minimum Tmax
[23] = Maximum Tmax of saquinavir mesylate following oral repeat dosing of 1000 mg Invirase Film-coated tablet in healthy human; format: ADME, organism-based; conditions: both, plasma, read-out: Maximum Tmax
[24] = Mean exposure of saquinavir mesylate estimated by AUC(0-infinity) following oral repeat dosing of 1000 mg Invirase Film-coated tablet in healthy men; format: ADME, organism-based; conditions: male, human, plasma, read-out: AUC(0-infinity)
[25] = Arithmetic mean of AUC(0-infinity) of saquinavir mesylate following oral repeat dosing of 1000 mg Invirase Film-coated tablet in healthy human; format: ADME, organism-based; conditions: both, plasma, read-out: AUC(0-infinity)
clinical [26] = conditions: both, human, plasma, po, 1000 mg; remark: listed apart in the source
clinical [27] = conditions: both, human, plasma, po, 1000 mg; remark: listed apart in the source

A Tmax [1] of 4.37 h, a half-life (clinical [2]) of 7.73 h and an AUC(0-inf) [3] of 1190 ng·h/mL were found for `CC(C)(C)NC(=O)[C@@H]1C[C@@H]2CCCC[C@@H]2CN1C[C@@H](O)[C@H](Cc1ccccc1)NC(=O)[C@H](CC(N)=O)NC(=O)c1ccc2ccccc2n1` in this work. The AUC(0-inf) [4] was 1090 ng·h/mL, the Cmax [5] was 306 ng/mL and the “Minimum Tmax” value [6] was 1 h. It also gave an AUC(0-inf) [7] of 1480 ng·h/mL, a Cmax [8] of 404 ng/mL and a Cmax [9] of 332 ng/mL. It also gave a Cmax [10] of 265 ng/mL, an AUC(0-inf) [11] of 1040 ng·h/mL and a Tmax [12] of 10 h. For the same molecule, the Cmax [13] was 278 ng/mL, the half-life (clinical [14]) was 7.89 h and the Cmax [15] was 348 ng/mL. It also gave an AUC(0-inf) [16] of 1240 ng·h/mL, a Cmax [17] of 285 ng/mL and a Cmax [18] of 285 ng/mL. The Cmax [19] was 395 ng/mL, the Tmax [20] was 3.88 h and the Cmax [21] was 332 ng/mL. It also gave a Tmax [22] of 1.02 h, a Tmax [23] of 6 h and an AUC(0-inf) [24] of 1030 ng·h/mL. It also gave an AUC(0-inf) [25] of 1510 ng·h/mL, a half-life (clinical [26]) of 8.29 h and a half-life (clinical [27]) of 7.51 h.
